Assay results from patent publication US20140005163A1 (NOVARTIS AG, priority 2010, published 2014).

Assays:
[1] = system: PKB Ser473 phosphorylation in Rat1-myr-HA-p110 alpha cells; test: Reverse protein array assay, PKB Ser473 phosphorylation in Rat1-myr-p110 alpha cells; format: cell-based; settings: 0.5 h, pAkt Ser473, 30 minutes compound incubation, read-out: p-PKB IC50
Summary of the method: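 Cells: Rat1-myr-HA-p110 alpha/beta/delta, seeded ≥20 h. Lysis on ice 10 min; reverse-phase protein array, 4 lysate dilutions; fluorescence read, relative intensity.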

mTOR = target: T1, mTOR (Homo sapiens, UniProt P42345); test: Biochemical assay for m-TOR by TR-FRET; settings: 8 μM ATP, 400 nM GFP-4EBP1, 0.5 nM mTOR
T1 construct: purchased Invitrogen Corporation (Carlsbad/CA, USA) PV4753
T1 sequence (P42345 1360-2549 limits assumed): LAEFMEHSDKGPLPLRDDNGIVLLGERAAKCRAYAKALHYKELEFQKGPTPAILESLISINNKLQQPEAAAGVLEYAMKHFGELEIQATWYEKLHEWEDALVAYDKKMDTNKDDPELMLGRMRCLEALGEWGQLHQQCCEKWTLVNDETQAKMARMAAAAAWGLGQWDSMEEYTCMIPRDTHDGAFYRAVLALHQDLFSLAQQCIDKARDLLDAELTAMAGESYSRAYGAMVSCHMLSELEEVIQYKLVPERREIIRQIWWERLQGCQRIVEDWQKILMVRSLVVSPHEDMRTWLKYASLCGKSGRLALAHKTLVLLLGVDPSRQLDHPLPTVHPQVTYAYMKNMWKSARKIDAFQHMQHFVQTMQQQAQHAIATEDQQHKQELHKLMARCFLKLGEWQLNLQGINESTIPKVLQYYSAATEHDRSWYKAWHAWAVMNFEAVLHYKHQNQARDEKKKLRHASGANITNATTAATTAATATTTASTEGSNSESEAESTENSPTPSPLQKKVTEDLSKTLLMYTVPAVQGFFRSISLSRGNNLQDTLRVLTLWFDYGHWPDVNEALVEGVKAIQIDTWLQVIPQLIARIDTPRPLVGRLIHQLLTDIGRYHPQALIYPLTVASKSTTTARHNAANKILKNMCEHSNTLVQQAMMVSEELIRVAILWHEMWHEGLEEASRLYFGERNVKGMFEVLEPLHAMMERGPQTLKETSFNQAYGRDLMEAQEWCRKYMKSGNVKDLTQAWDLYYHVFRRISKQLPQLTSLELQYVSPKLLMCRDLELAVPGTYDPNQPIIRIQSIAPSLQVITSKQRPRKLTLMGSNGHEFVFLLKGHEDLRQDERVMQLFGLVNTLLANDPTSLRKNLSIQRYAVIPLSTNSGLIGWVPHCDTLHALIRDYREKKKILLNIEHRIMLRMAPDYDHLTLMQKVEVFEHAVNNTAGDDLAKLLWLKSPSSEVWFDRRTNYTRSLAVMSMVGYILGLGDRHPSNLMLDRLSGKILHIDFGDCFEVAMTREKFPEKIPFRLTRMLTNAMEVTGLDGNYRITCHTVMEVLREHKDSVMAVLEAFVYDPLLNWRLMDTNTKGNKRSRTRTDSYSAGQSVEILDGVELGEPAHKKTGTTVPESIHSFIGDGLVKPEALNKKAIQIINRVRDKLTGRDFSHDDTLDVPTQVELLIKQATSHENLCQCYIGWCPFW
Summary of the method: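 mTOR (0.5 nM final) phosphorylated GFP-4EBP1 (400 nM final) with ATP (8 μM final) at rt in 50 mM HEPES pH 7.5, 10 mM MnCl2, 50 mM NaCl, 1 mM EGTA, 1 mM DTT. EDTA stop with Tb3+-anti-p4EBP1 [pThr46] antibody (0.5 nM); TR-FRET read 15 min later.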

[2] = system: S6 Ribosomal Protein phosphorylation Ser235/236 in TSC1 null mouse embryo fibroblast (MEF) cells; test: Reverse protein array assay, S6 Ribosomal Protein phosphorylation Ser235/236 in TSC1 null MEF cells; format: cell-based; settings: 1 h, pS6 ribosomal protein Ser235/236, 60 minutes incubation, read-out: p-S6 IC50
Summary of the method: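 TSC1−/− MEFs, seeded and held ≥20 h at 37 °C/5% CO2, were exposed to 8-step serial compound dilutions (0.02% DMSO final; DMSO vehicle control) for 60 min at 37 °C. Cells were then lysed on ice for 10 min and lysates spotted onto reverse protein array chips.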

SMILES | IC50 [1] [nM] | IC50 (mTOR) [nM] | IC50 [2] [nM]
CCNc1ncc(-c2ccc3ncc4c(c3c2)n(-c2cn(C)nc2C)c(=O)n4C)cc1Cl [Example 147, 8-(5-Chloro-6-ethylamino-pyridin-3-yl)-1-(1,3-dimethyl-1H-pyrazol-4-yl)-3-methyl-1,3-dihydro-imidazo[4,5-c]quinolin-2-one] | 17 | 11 | 5.53
Cc1nn(C)cc1-n1c(=O)n(C)c2cnc3ccc(-c4cnc(F)c(N(C)C)c4)cc3c21 [Example 151, 8-(5-Dimethylamino-6-fluoro-pyridin-3-yl)-1-(1,3-dimethyl-1H-pyrazol-4-yl)-3-methyl-1,3-dihydro-imidazo[4,5-c]quinolin-2-one] | 21 | 15 | 4
Cc1nn(C)cc1-n1c(=O)n(C)c2cnc3ccc(-c4cnc(Cl)c(N)c4)cc3c21 [Example 152.2, 8-(5-Amino-6-chloro-pyridin-3-yl)-1-(1,3-dimethyl-1H-pyrazol-4-yl)-3-methyl-1,3-dihydro-imidazo[4,5-c]quinolin-2-one] | < 5 | 5 | 1
CCNc1cc(-c2ccc3ncc4c(c3c2)n(-c2cn(C)nc2C)c(=O)n4C)cnc1COC [Example 156, 1-(1,3-Dimethyl-1H-pyrazol-4-yl)-8-(5-ethylamino-6-methoxymethyl-pyridin-3-yl)-3-methyl-1,3-dihydro-imidazo[4,5-c]quinolin-2-one] | 10 | 5 | 1
CNc1cc(-c2ccc3ncc4c(c3c2)n(-c2cn(C)nc2C)c(=O)n4C)cnc1CO [Example 158.1, 1-(1,3-Dimethyl-1H-pyrazol-4-yl)-8-(6-hydroxymethyl-5-methylamino-pyridin-3-yl)-3-methyl-1,3-dihydro-imidazo[4,5-c]quinolin-2-one] | 6 | 4 | 8
CNc1cc(-c2ccc3ncc4c(c3c2)n(-c2c(C)nn(C)c2C)c(=O)n4C)cnc1CO [Example 158.4, 8-(6-Hydroxymethyl-5-methylamino-pyridin-3-yl)-3-methyl-1-(1,3,5-trimethyl-1H-pyrazol-4-yl)-1,3-dihydro-imidazo[4,5-c]quinolin-2-one] | 114 | 70 | 150
CNc1ncc(-c2ccc3ncc4c(c3c2)n(-c2cn(C(C)C)nc2C)c(=O)n4C)cc1CO [Example 171, 8-(5-Hydroxymethyl-6-methylamino-pyridin-3-yl)-1-(1-isopropyl-3-methyl-1H-pyrazol-4-yl)-3-methyl-1,3-dihydro-imidazo[4,5-c]quinolin-2-one] | 9 | < 3 | 3
Cc1nn(C)cc1-n1c(=O)n(C)c2cnc3ccc(-c4cncc(OCCF)c4)cc3c21 [Example 181, 1-(1,3-Dimethyl-1H-pyrazol-4-yl)-8-[5-(2-fluoro-ethoxy)-pyridin-3-yl]-3-methyl-1,3-dihydro-imidazo[4,5-c]quinolin-2-one] | 51 | 10 | 3
Cc1nn(C)cc1-n1c(=O)n(C)c2cnc3ccc(-c4cncc(OC(CF)CF)c4)cc3c21 [Example 182, 1-(1,3-Dimethyl-1H-pyrazol-4-yl)-8-[5-(2-fluoro-1-fluoromethyl-ethoxy)-pyridin-3-yl]-3-methyl-1,3-dihydro-imidazo[4,5-c]quinolin-2-one] | 15 | 6 | 5
COc1ncc(-c2ccc3ncc4c(c3c2)n(-c2cn(C)nc2Cl)c(=O)n4C)cc1CO [Example 200, 1-(3-Chloro-1-methyl-1H-pyrazol-4-yl)-8-(5-hydroxymethyl-6-methoxy-pyridin-3-yl)-3-methyl-1,3-dihydro-imidazo[4,5-c]quinolin-2-one] | < 5 | 3 | < 0.5
COCc1cc(-c2ccc3ncc4c(c3c2)n(-c2cn(C)nc2Cl)c(=O)n4C)cnc1OC [Example 201, 1-(3-Chloro-1-methyl-1H-pyrazol-4-yl)-8-(6-methoxy-5-methoxymethyl-pyridin-3-yl)-3-methyl-1,3-dihydro-imidazo[4,5-c]quinolin-2-one] | 12 | 27 | 1
Cc1nn(C(C)C)cc1-n1c(=O)n(C)c2cnc3ccc(-c4cncc(C(O)(CF)CF)c4)cc3c21 [Example 219, 8-[5-(2-Fluoro-1-fluoromethyl-1-hydroxy-ethyl)-pyridin-3-yl]-1-(1-isopropyl-3-methyl-1H-pyrazol-4-yl)-3-methyl-1,3-dihydro-imidazo[4,5-c]quinolin-2-one] | 52 | 139 | 6
CC(=O)Nc1cc(-c2ccc3ncc4c(c3c2)n(-c2cn(C)nc2C)c(=O)n4C)cnc1Cl [Example 222, N-{2-Chloro-5-[1-(1,3-dimethyl-1H-pyrazol-4-yl)-3-methyl-2-oxo-2,3-dihydro-1H-imidazo[4,5-c]quinolin-8-yl]-pyridin-3-yl}-acetamide] | 55 | 22 | 4
Cc1nn(C)cc1-n1c(=O)n(C)c2cnc3ccc(-c4cnc(Cl)c(NS(C)(=O)=O)c4)cc3c21 [Example 223, N-{2-Chloro-5-[1-(1,3-dimethyl-1H-pyrazol-4-yl)-3-methyl-2-oxo-2,3-dihydro-1H-imidazo[4,5-c]quinolin-8-yl]-pyridin-3-yl}-methanesulfonamide] | 11 | < 3 | 35

The next lines start with results.

IC50 [1] [nM] | IC50 (mTOR) [nM] | SMILES | IC50 [2] [nM]
< 5 | < 3 | CNc1cc(-c2ccc3ncc4c(c3c2)n(-c2cn(C)nc2Cl)c(=O)n4C)cnc1COC [Example 160.1, 1-(3-Chloro-1-methyl-1H-pyrazol-4-yl)-8-(6-methoxymethyl-5-methylamino-pyridin-3-yl)-3-methyl-1,3-dihydro-imidazo[4,5-c]quinolin-2-one] | < 0.5
38 | 55 | CCOCc1cc(-c2ccc3ncc4c(c3c2)n(-c2cn(CC)nc2C)c(=O)n4C)cnc1N [Example 166.2, 8-(6-Amino-5-ethoxymethyl-pyridin-3-yl)-1-(1-ethyl-3-methyl-1H-pyrazol-4-yl)-3-methyl-1,3-dihydro-imidazo[4,5-c]quinolin-2-one] | 2.26
20 | 12 | COCc1cc(-c2ccc3ncc4c(c3c2)n(-c2cn(C(C)C)nc2C)c(=O)n4C)cnc1N [Example 168.1, 8-(6-Amino-5-methoxymethyl-pyridin-3-yl)-1-(1-isopropyl-3-methyl-1H-pyrazol-4-yl)-3-methyl-1,3-dihydro-imidazo[4,5-c]quinolin-2-one] | 1
59 | 155 | Cc1cc(-n2c(=O)n(C)c3cnc4ccc(-c5cncc(N6CCOCC6)c5)cc4c32)n(C)n1 [Example 175.2, 1-(2,5-Dimethyl-2H-pyrazol-3-yl)-3-methyl-8-(5-morpholin-4-yl-pyridin-3-yl)-1,3-dihydro-imidazo[4,5-c]quinolin-2-one] | 32
9 | 3 | Cc1nn(C)cc1-n1c(=O)n(C)c2cnc3ccc(-c4cncc(NC(C)C)c4)cc3c21 [Example 177.1, 1-(1,3-Dimethyl-1H-pyrazol-4-yl)-8-(5-isopropylamino-pyridin-3-yl)-3-methyl-1,3-dihydro-imidazo[4,5-c]quinolin-2-one] | 2
44 | 101 | COc1cc(-c2ccc3ncc4c(c3c2)n(-c2cn(C(C)C)nc2C)c(=O)n4C)cnc1CO [Example 194.1, 8-(6-Hydroxymethyl-5-methoxy-pyridin-3-yl)-1-(1-isopropyl-3-methyl-1H-pyrazol-4-yl)-3-methyl-1,3-dihydro-imidazo[4,5-c]quinolin-2-one] | 20
9 | 6 | COc1cc(-c2ccc3ncc4c(c3c2)n(-c2cn(C)nc2Cl)c(=O)n4C)cnc1CO [Example 194.2, 1-(3-chloro-1-methyl-1H-pyrazol-4-yl)-8-(6-hydroxymethyl-5-methoxy-pyridin-3-yl)-3-methyl-1,3-dihydro-imidazo[4,5-c]quinolin-2-one] | 2
45 | 45 | CCOCc1ncc(-c2ccc3ncc4c(c3c2)n(-c2cn(C)nc2Cl)c(=O)n4C)cc1OC [Example 196.1, 1-(3-Chloro-1-methyl-1H-pyrazol-4-yl)-8-(6-ethoxymethyl-5-methoxy-pyridin-3-yl)-3-methyl-1,3-dihydro-imidazo[4,5-c]quinolin-2-one] | 10
11 | 13 | COc1cc(-c2ccc3ncc4c(c3c2)n(-c2cn(CCO)nc2C)c(=O)n4C)cnc1C [Example 211.1, 1-[1-(2-Hydroxy-ethyl)-3-methyl-1H-pyrazol-4-yl]-8-(5-methoxy-6-methyl-pyridin-3-yl)-3-methyl-1,3-dihydro-imidazo[4,5-c]quinolin-2-one] | 21
18 | 56 | CCn1cc(-n2c(=O)n(C)c3cnc4ccc(-c5cncc(C6(C#N)CCC6)c5)cc4c32)c(C)n1 [Example 221.2, 1-{5-[1-(1-Ethyl-3-methyl-1H-pyrazol-4-yl)-3-methyl-2-oxo-2,3-dihydro-1H-imidazo[4,5-c]quinolin-8-yl]-pyridin-3-yl}-cyclobutanecarbonitrile] | 1
